Assay results as given in patent publication US10494380B2, “Nitrogen-containing tricyclic derivatives having HIV replication inhibitory activity” (priority 2015, dated 2019).
Read-outs that look alike come from different tables or passages of the source.

What was measured:
[1] = tested on: T125A mutant virus (HIV-1 NL-432 recombinant molecular clone, IN gene); test: HIV replication inhibition assay against integrase 124/125 mutant virus (Test Example 2); format: cell-based
Method in brief: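 EC50 is the compound concentration blocking half of virus-induced cell death, measured by MTT (OD 560 nm, 690 nm reference) after 4 days at 37 °C. Integrase 124/125 mutant NL-432 virus from transfected 293T cells (60 pfu) was added to 2.5×10^4 MT-4 cells with compound.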

HIV = format: cell-based; details: EC50 in the presence of human serum (25%) versus without human serum, MT-4 cells
Procedure: To confirm the influence of human serum on anti-HIV activity as necessary, human serum was added and determined EC50 in this condition. Human serum (100 μL/well) was dispensed into each anti-HIV active substance at a designated concentration dispensed 50 μL each in advance into a 96-well microtiter plate, and the plate was incubate at room temperature for 1 hour. To the serum-free plate, only culture medium (100 μL/well) was dispensed into 96-well microtiter plate. MT-4 cells (3×10^4 cells/well) was infected with 3 μL/well of HIV solution diluted to an appropriate concentration (600 pfu/50 μL) by the required number of wells and incubated at 37° C. for 1 hour. The infected cells were centrifuged at 1200 rpm for 5 minutes, the supernatant was discarded, and the infected cells were dispersed into culture medium for the required number of wells at 50 μL/well. Infected cell suspension was dispensed into a 96-well microtiter plate of which anti-HIV active substance and human serum prepared in advance. The cell mixture was mixed with a plate mixer and cultured in a CO2 incubator for 4 days. The EC50 in the presence of human serum was calculated in the same manner as in Test Example 1 and the ratio of EC50 in the presence of human serum and EC50 in the absence of human serum was calculated as the potency shift value. […]

[2] = Human immunodeficiency virus 1, MT4, read-out: EC50 against T125A mutant virus, T125A mutant virus (HIV-1 NL-432 IN gene), MT-4 cells, MTT
[3] = T125A mutant virus (HIV-1 NL-432 IN gene), MT-4 cells, MTT, read-out: EC50 against T125A mutant virus
[4] = read-out: EC50 against T125A mutant virus, T125A mutant virus (HIV-1 NL-432 IN gene), MT-4 cells, MTT

Structure (SMILES)	EC50 [1, 2] [nM]	Potency shift value (HIV)	EC50 [1, 3] [nM]	EC50 [1, 4] [nM]
Cc1ccc(-c2c([C@H](OC(C)(C)C)C(=O)O)c(Cl)c3c4c2cc(C)n4CCN3c2nc3c(s2)CCN(C)C3)cc1 [Compound I-352]	14	10		
Cc1ccc(-c2c([C@H](OC(C)(C)C)C(=O)O)c(C)c3c4c2cc(C)n4CCN3CCOCC(F)F)cc1 [Compound I-206]		9.7	71	
Cc1ccc(-c2c([C@H](OC(C)(C)C)C(=O)O)c(C)c3c4c2cc(C)n4CCN3c2ncc(CN3CCCC3)cn2)cc1 [Compound I-347]	10	7.4		
Cc1c([C@H](OC(C)(C)C)C(=O)O)c(-c2ccc(Cl)cc2)c2cc(C)n3c2c1N(c1nc2ccccc2n1C)CC3 [Compound I-242]	6.4	11		
Cc1c([C@H](OC(C)(C)C)C(=O)O)c(-c2ccc(Cl)cc2)c2cc(C)n3c2c1N(c1nc2ccccc2s1)CC3 [Compound I-240]	51	12		
Cc1c([C@H](OC(C)(C)C)C(=O)O)c(-c2ccc(Cl)cc2)c2cc(C)n3c2c1N(c1ncc(OCC2(F)COC2)cn1)CC3 [Compound I-259]	4.4	15		
Cc1c([C@H](OC(C)(C)C)C(=O)O)c(-c2ccc(Cl)cc2)c2cc(C)n3c2c1N(c1ncc(-c2ccc(F)cc2)cn1)CC3 [Compound I-239]	22	16		
Cc1c([C@H](OC(C)(C)C)C(=O)O)c(-c2ccc(Cl)cc2)c2cc(C)n3c2c1N(Cc1cnccn1)CC3 [Compound I-152]	11	6.9		
Cc1c([C@H](OC(C)(C)C)C(=O)O)c(-c2ccc(Cl)cc2)c2cc(C)n3c2c1N(c1ncc(OCCCO)cn1)CC3 [Compound I-256]	5.6	10		
Cc1c([C@H](OC(C)(C)C)C(=O)O)c(-c2ccc(Cl)cc2)c2cc(C)n3c2c1N(c1nccs1)CC3 [Compound I-165]	6.9	8.3		
Cc1c([C@H](OC(C)(C)C)C(=O)O)c(-c2ccc(Cl)cc2)c2cc(C)n3c2c1N(C)C1COCC13 (stereo partly drawn) [Compound I-138]		5.8		1.5
Cc1ccc(-c2c([C@H](OC(C)(C)C)C(=O)O)c(C)c3c4c2cc(C)n4CCN3c2ncc(C(=O)N(C)C)cn2)cc1 [Compound I-250]	9.9	19		
Cc1c([C@H](OC(C)(C)C)C(=O)O)c(-c2ccc(Cl)cc2)c2cc(C)n3c2c1N(C(=O)Nc1ccccc1N)CC3 [Compound I-218]		5.5	20	
COc1cnc(N2c3c(C)c([C@H](OC(C)(C)C)C(=O)O)c(-c4ccc(C)cc4)c4cc(C)n(c34)C[C@H]2C)nc1 [Compound I-241]	2.2	8.4		
Cc1ccc(-c2c([C@H](OC(C)(C)C)C(=O)O)c(C)c3c4c2cc(C)n4CCN3c2ncc(OCCO)cn2)cc1 [Compound I-283]	12	9.5		
Cc1ccc(-c2c([C@H](OC(C)(C)C)C(=O)O)c(C)c3c4c2cc(C)n4CCN3c2ncc(Oc3nc4ccccc4o3)cn2)cc1 [Compound I-345]	38	41		
COc1cnc(N2c3c(C)c([C@H](OC(C)(C)C)C(=O)O)c(-c4ccc(Cl)cc4)c4cc(C)n(c34)C3CN(C(=O)c4ccccc4)CC32)nc1 (stereo partly drawn) [Compound I-322]	44	15		
Cc1cc2c(-c3ccc(Cl)cc3)c([C@H](OC(C)(C)C)C(=O)O)c(Cl)c3c2n1CCN3C [Compound I-228]	2.6	9.1		
Cc1ccc(-c2c([C@H](OC(C)(C)C)C(=O)O)c(C)c3c4c2cc(C)n4CCN3c2ncc(OCCN(C)S(C)(=O)=O)cn2)cc1 [Compound I-225]		9.7	11	
Cc1c([C@H](OC(C)(C)C)C(=O)O)c(-c2ccc(Cl)cc2)c2cc(C)n3c2c1N(C(N)=S)CC3 [Compound I-166]	62	3.5		

Structure (SMILES)	EC50 [1, 2] [nM]	Potency shift value (HIV)	EC50 [1, 3] [nM]	EC50 [1, 4] [nM]
Cc1cc(F)c(-c2c([C@H](OC(C)(C)C)C(=O)O)c(C)c3c4c2cc(C)n4CCN3CCN(C)C)c(F)c1 [Compound I-248]	67	1.5		
Cc1ccc(-c2c([C@H](OC(C)(C)C)C(=O)O)c(C)c3c4c2cc(C)n4CCN3c2ncc(CN3CCN(C)CC3)cn2)cc1 [Compound I-349]	30	3.6		
Cc1c([C@H](OC(C)(C)C)C(=O)O)c(-c2ccc(Cl)cc2)c2cc(C)n3c2c1N(c1ncccc1F)CC3 [Compound I-193]	2.8	21		
Cc1ccc(-c2c([C@H](OC(C)(C)C)C(=O)O)c(Cl)c3c4c2cc(C)n4CCN3c2ncc(OCCN(C)C)cn2)cc1 [Compound I-350]	22	4.3		
Cc1ccc(-c2c([C@H](OC(C)(C)C)C(=O)O)c(C)c3c4c2cc(C)n4CCN3CCF)cc1 [Compound I-209]		24	16	
Cc1ccc(-c2c([C@H](OC(C)(C)C)C(=O)O)c(C)c3c4c2cc(C)n4CCN3S(=O)(=O)CCO)cc1 [Compound I-210]		5.4	65	
CC(=O)NCCOc1cnc(N2CCn3c(C)cc4c(-c5ccc(C)cc5)c([C@H](OC(C)(C)C)C(=O)O)c(C)c2c43)nc1 [Compound I-295]	62	5.3		
Cc1c([C@H](OC(C)(C)C)C(=O)O)c(-c2ccc(Cl)cc2)c2cc(C)n3c2c1N(C)CC3c1ccccc1 (stereo partly drawn) [Compound I-332]		25		13
Cc1ccc(-c2c([C@H](OC(C)(C)C)C(=O)O)c(C)c3c4c2cc(C)n4CCN3c2ncc(CN3CCOCC3)cn2)cc1 [Compound I-348]	5	21		
Cc1c([C@H](OC(C)(C)C)C(=O)O)c(-c2ccc(Cl)cc2)c2cc(C)n3c2c1N(C(=O)C(=O)N(C)C)[C@H](C)C3 [Compound I-169]	50	30		
Cc1c(-c2c([C@H](OC(C)(C)C)C(=O)O)c(C)c3c4c2cc(C)n4CCN3CCN(C)C)cc(F)c2c1CCCO2 [Compound I-310]	68	1.2		
Cc1c([C@H](OC(C)(C)C)C(=O)O)c(-c2ccc(Cl)cc2)c2cc(C)n3c2c1N(c1ncc(O)cn1)CC3 [Compound I-183]	31	7.6		
Cc1ccc(-c2c([C@H](OC(C)(C)C)C(=O)O)c(C)c3c4c2cc(C)n4CCN3c2cccc(CO)n2)cc1 [Compound I-216]		9.2	20	
Cc1ccc(-c2c([C@H](OC(C)(C)C)C(=O)O)c(F)c3c4c2cc(C)n4CCN3C)cc1 [Compound I-179]	83	23		
C=Cc1cnc(N2CCn3c(C)cc4c(-c5ccc(Cl)cc5)c([C@H](OC(C)(C)C)C(=O)O)c(C)c2c43)nc1 [Compound I-299]	5.1	20		
Cc1c([C@H](OC(C)(C)C)C(=O)O)c(-c2ccc(Cl)cc2)c2cc(C)n3c2c1OC(C)C3 (stereo partly drawn) [Compound I-195]	15	12		
Cc1ccc(-c2c([C@H](OC(C)(C)C)C(=O)O)c(C)c3c4c2cc(C)n4CCN3c2ccc(N3CCCC3=O)cn2)cc1 [Compound I-288]	5.3	11		
Cc1ccc(-c2c([C@H](OC(C)(C)C)C(=O)O)c(C)c3c4c2cc(C)n4CCN3c2ncc(Oc3ncccn3)cn2)cc1 [Compound I-330]	7.7	39		
Cc1ccc(-c2c([C@H](OC(C)(C)C)C(=O)O)c(C)c3c4c2cc(C)n4CCN3c2cccc(CN3CCOCC3)n2)cc1 [Compound I-217]		9.1	39	
